Data on 16 compounds can be found in patent publication US9120812B2, “Pyrimidooxazocine derivatives as mTOR-inhibitors” (SANOFI, priority 2012, dated 2015).

pIC50: −log10 of the molar value.

Assay [1] deals with mTOR (human recombinant aa mTOR 1360-2549) (Homo sapiens (Human), UniProt P42345). Briefly: mTOR enzymatic test by TR-FRET (phosphorylation of GFP-4EBP1). Format: biochemical. The procedure, abridged:
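TR-FRET detection of GFP-4EBP1 phosphorylation by a terbium-labelled anti-phospho-Thr46 antibody. Kinase reaction ran 30 min at room temperature, was quenched with EDTA (10 mM final) plus Tb-antibody (2 nM final) and left 60 min. Emission at 520 and 490 nm after 340 nm excitation, reported as the 520/490 ratio.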
Background: In TR-FRET formats the signal depends on donor and acceptor labels being close together.

Assay [2] deals with PI3Kα (p110α/p85α) (Homo sapiens (Human), UniProt P42336). Briefly: PI3Kα enzymatic test by measuring the consumption of ATP. Format: biochemical. A digest of the protocol:
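p110α/p85α (1.7 μg/ml) with 50 μM PIP2 and 2 μM ATP in pH 7.5 Tris buffer with EGTA, MgCl2, Chaps, DTT; reaction 90 min. Remaining ATP measured by luciferin/luciferase luminescence; IC50 from threefold serial dilutions spanning at least 10 000-fold.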

Assay [3] concerns U87MG tumour cells. Kind of assay: Test of in vitro proliferation of U87MG tumour cells. Format: cell-based. Conditions: Homo sapiens, U-87 MG, 72 h, U87MG cells, 72 hours; read-out: U87 Cell Proliferation IC50. As for the experimental part: Model 4: Test of in vitro Proliferation of U87MG Tumour Cells.
The cell growth is determined with the reagent CellTiter 96 AQueous One Solution Cell Proliferation Assay from Promega (Cat. No. G3581).

Assay [4] relates to Akt-pS473 in U87MG cells. To be noted: Homo sapiens, U-87 MG, read-out: U87 Akt-pS473 % Inhibition or IC50, nM (IC50), U87MG cells.

Chain of mTOR (human recombinant aa mTOR 1360-2549) (P42345 1360-2549): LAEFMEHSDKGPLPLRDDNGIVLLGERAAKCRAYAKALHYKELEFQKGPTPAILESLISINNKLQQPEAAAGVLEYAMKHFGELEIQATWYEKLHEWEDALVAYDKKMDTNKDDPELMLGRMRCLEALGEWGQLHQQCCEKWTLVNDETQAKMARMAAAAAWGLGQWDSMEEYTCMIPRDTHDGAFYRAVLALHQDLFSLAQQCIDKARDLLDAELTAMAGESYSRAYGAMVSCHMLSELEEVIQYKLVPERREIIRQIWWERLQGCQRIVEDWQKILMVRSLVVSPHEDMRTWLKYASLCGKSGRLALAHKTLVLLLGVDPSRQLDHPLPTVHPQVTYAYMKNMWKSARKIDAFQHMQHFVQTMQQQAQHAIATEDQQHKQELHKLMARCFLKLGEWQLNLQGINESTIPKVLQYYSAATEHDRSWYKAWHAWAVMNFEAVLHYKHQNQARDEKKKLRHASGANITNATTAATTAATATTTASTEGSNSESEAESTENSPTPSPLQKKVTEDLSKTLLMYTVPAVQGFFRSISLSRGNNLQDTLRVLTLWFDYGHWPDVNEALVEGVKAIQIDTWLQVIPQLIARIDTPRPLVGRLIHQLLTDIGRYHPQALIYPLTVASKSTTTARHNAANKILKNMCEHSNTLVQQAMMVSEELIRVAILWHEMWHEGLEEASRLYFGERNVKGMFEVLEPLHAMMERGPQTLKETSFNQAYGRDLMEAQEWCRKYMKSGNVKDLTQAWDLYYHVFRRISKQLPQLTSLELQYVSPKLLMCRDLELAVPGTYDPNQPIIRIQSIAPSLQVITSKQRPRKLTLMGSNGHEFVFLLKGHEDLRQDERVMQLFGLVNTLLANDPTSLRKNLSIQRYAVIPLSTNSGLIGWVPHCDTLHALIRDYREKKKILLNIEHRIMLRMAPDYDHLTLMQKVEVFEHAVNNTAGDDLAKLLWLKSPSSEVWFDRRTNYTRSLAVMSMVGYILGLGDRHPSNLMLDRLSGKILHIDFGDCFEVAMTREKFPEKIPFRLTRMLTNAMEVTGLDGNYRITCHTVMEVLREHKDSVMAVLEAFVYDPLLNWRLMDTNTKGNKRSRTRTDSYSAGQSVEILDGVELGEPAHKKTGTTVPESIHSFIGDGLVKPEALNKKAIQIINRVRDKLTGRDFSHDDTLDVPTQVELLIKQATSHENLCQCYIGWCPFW
Chain of PI3Kα (p110α/p85α) (P42336 whole entry): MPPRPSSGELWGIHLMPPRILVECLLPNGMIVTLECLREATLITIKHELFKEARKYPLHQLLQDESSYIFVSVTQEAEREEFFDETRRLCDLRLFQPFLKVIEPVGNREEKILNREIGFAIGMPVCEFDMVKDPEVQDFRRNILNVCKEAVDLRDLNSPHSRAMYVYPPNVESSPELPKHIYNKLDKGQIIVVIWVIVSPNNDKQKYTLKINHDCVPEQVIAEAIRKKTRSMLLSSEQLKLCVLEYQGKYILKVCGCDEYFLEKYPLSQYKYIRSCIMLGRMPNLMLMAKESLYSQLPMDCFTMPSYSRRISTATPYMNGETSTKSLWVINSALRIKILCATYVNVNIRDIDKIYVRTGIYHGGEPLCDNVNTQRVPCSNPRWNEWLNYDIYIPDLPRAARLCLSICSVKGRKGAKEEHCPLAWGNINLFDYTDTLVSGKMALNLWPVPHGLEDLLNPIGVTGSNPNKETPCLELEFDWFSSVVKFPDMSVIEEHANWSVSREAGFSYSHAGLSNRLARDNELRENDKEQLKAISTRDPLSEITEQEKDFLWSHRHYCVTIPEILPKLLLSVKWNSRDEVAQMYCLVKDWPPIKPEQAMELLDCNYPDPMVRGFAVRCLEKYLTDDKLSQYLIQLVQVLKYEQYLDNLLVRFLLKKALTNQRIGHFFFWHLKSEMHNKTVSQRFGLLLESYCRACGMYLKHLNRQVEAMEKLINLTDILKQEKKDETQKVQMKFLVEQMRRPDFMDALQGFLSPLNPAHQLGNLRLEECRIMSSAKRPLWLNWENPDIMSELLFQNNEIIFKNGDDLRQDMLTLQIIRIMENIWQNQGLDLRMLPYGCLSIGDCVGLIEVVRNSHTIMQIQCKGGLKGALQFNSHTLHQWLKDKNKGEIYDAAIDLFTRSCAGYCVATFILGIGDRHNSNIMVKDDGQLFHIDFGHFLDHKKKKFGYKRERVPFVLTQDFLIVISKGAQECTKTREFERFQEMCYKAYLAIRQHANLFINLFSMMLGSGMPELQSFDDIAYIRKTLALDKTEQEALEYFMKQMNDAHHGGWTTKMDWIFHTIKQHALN
Chain of PI3Kα (p110α/p85α) (P27986 whole entry partner): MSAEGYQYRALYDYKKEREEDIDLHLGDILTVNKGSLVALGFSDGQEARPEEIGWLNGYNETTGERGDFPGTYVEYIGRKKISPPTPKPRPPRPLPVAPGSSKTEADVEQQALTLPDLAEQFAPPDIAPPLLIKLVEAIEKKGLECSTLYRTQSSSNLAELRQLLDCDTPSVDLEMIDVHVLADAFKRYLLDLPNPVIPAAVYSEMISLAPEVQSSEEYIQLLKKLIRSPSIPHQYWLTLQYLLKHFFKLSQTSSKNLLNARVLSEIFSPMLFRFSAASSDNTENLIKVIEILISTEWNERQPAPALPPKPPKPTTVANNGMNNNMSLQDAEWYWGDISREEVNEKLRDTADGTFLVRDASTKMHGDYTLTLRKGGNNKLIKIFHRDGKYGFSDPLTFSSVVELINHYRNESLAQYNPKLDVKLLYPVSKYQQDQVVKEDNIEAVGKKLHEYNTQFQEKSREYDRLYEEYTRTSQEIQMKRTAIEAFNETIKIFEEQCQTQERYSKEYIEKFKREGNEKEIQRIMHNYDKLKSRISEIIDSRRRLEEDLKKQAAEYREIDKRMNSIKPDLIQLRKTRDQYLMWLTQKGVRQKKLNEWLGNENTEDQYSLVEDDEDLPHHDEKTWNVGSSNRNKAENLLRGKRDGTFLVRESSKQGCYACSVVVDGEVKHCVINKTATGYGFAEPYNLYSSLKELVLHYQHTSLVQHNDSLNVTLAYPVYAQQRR

One may read the IC50 as the concentration that gives 50% inhibition. For `CCN1CC(C)(C)Oc2nc(N3C4CCC3COC4)nc(-c3ccc(NC(=O)Nc4ccnc(C)c4)c(F)c3)c2C1=O` [Example 55, 1-{4-[6-Ethyl-8,8-dimethyl-2-(3-oxa-8-azabicyclo[3.2.1]oct-8-yl)-5-oxo-5,6,7,8-tetrahydro-9-oxa-1,3,6-triazabenzocyclohepten-4-yl]-2-fluorophenyl}-3-(2-methylpyridin-4-yl)urea], the pIC50 in assay [1] was 7.18; in assay [3] it was 7.27. For the same compound, in assay [2], the “PI3Ka IC50” value came to 4.81 µM. Further, in assay [4], the half-maximal inhibitory concentration (IC50) was found to be 27 nM.

Regarding `CCN1CC(C)(C)Oc2nc(N3CC4CCC(C3)O4)nc(-c3ccc(NC(=O)Nc4ccnc(C)c4)c(F)c3)c2C1=O` [Example 56, 1-{4-[6-Ethyl-8,8-dimethyl-2-(8-oxa-3-azabicyclo[3.2.1]oct-3-yl)-5-oxo-5,6,7,8-tetrahydro-9-oxa-1,3,6-triazabenzocyclohepten-4-yl]-2-fluorophenyl}-3-(2-methylpyridin-4-yl)urea], the pIC50 in assay [1] is 7.39; in assay [3] it was 7.24. Besides, the “PI3Ka IC50” value in assay [2] was determined as 3.23 µM. For the same compound, in assay [4], the IC50 amounted to 26 nM.

For the compound `CCN1CC(C)(C)Oc2nc(N3CC4CCC(C3)O4)nc(-c3ccc(NC(=O)Nc4cc(C)nc(C)c4)c(F)c3)c2C1=O` [Example 58, 1-(2,6-Dimethylpyridin-4-yl)-3-{4-[6-ethyl-8,8-dimethyl-2-(8-oxa-3-azabicyclo[3.2.1]oct-3-yl)-5-oxo-5,6,7,8-tetrahydro-9-oxa-1,3,6-triazabenzocyclohepten-4-yl]-2-fluorophenyl}urea], the pIC50 is 7.55 in assay [1] and 7.15 in assay [3]. Moreover, in assay [2], the “PI3Ka IC50” value is 9.47 µM. Further, the half-inhibitory concentration (IC50) in assay [4] is 20 nM.

Turning to `Cc1cc(NC(=O)Nc2ccc(-c3nc(N4C5CCC4COC5)nc4c3C(=O)N(C)CC(C)(C)O4)cc2F)ccn1` [Example 59, 1-{2-Fluoro-4-[6,8,8-trimethyl-2-(3-oxa-8-azabicyclo[3.2.1]oct-8-yl)-5-oxo-5,6,7,8-tetrahydro-9-oxa-1,3,6-triazabenzocyclohepten-4-yl]phenyl}-3-(2-methylpyridin-4-yl)urea], the pIC50 in assay [1] is 7.17; in assay [3], 7.38. Also, the “PI3Ka IC50” value in assay [2] was 4.2 µM. Moreover, the IC50 in assay [4] was found to be 36 nM.

With `CCN1CC(C)(C)Oc2nc(N3CC4CCC(C3)O4)nc(-c3ccc(NC(=O)O[C@H](C)CO)c(F)c3)c2C1=O` [Example 62, {4-[6-Ethyl-8,8-dimethyl-2-(8-oxa-3-azabicyclo[3.2.1]oct-3-yl)-5-oxo-5,6,7,8-tetrahydro-9-oxa-1,3,6-triazabenzocyclohepten-4-yl]-2-fluorophenyl}carbamic acid (R)-2-hydroxy-1-methylethyl ester], the figures for the pIC50 in assay [1] and in assay [3] were 6.18 and < 5.00, respectively. The “PI3Ka IC50” value in assay [2] is >10 µM. Further, the IC50 in assay [4] was > 1000 nM.

As for `CCN1CC(C)(C)Oc2nc(N3C4CCC3COC4)nc(-c3ccc(NC(=O)Nc4ccccn4)cc3)c2C1=O` [Example 63, 1-{4-[6-Ethyl-8,8-dimethyl-2-(3-oxa-8-azabicyclo[3.2.1]oct-8-yl)-5-oxo-5,6,7,8-tetrahydro-9-oxa-1,3,6-triazabenzocyclohepten-4-yl]phenyl}-3-pyridin-2-ylurea], the pIC50 is 7.51 in assay [1] and 6.72 in assay [3]. Besides, the “PI3Ka IC50” value in assay [2] is >10 µM. The half-maximal inhibitory concentration (IC50) in assay [4] amounted to 31 nM.

`CCN1CC(C)(C)Oc2nc(N3CC4CCC(C3)O4)nc(-c3ccc(NC(=O)Nc4ccc(N(C)C)cn4)cc3)c2C1=O` [Example 64, 1-(5-Dimethylaminopyridin-2-yl)-3-{4-[6-ethyl-8,8-dimethyl-2-(8-oxa-3-azabicyclo[3.2.1]oct-3-yl)-5-oxo-5,6,7,8-tetrahydro-9-oxa-1,3,6-triazabenzocyclohepten-4-yl]phenyl}urea]: the pIC50 in assay [1] was 7.62; in assay [3], 6.57. In assay [2], the “PI3Ka IC50” value was >10 µM. For the same compound, the IC50 in assay [4] was determined as 37 nM.

For the compound `CCN1CC(C)(C)Oc2nc(N3C4CCC3COC4)nc(-c3ccc(NC(=O)OCCO)cc3)c2C1=O` [Example 65, {4-[6-Ethyl-8,8-dimethyl-2-(3-oxa-8-azabicyclo[3.2.1]oct-8-yl)-5-oxo-5,6,7,8-tetrahydro-9-oxa-1,3,6-triazabenzocyclohepten-4-yl]phenyl}carbamic acid 2-hydroxyethyl ester], the pIC50 in assay [1] is 7.57; in assay [3], 6.59. Besides, the “PI3Ka IC50” value in assay [2] worked out at 22.4 µM. Further, in assay [4], the IC50 is 27 nM.

Regarding `Cc1ccc(NC(=O)Nc2ccc(-c3nc(N4CC5CCC(C4)O5)nc4c3C(=O)N(C)CC(C)(C)O4)cc2F)cn1` [Example 66, 1-{2-Fluoro-4-[6,8,8-trimethyl-2-(8-oxa-3-azabicyclo[3.2.1]oct-3-yl)-5-oxo-5,6,7,8-tetrahydro-9-oxa-1,3,6-triazabenzocyclohepten-4-yl]phenyl}-3-(6-methylpyridin-3-yl)urea], the pIC50 was 7.80 in assay [1] and 7.15 in assay [3]. The “PI3Ka IC50” value in assay [2] was 2.95 µM. Further, the IC50 in assay [4] stood at 21 nM.

With `Cc1ccc(NC(=O)Nc2ccc(-c3nc(N4C5CCC4COC5)nc4c3C(=O)N(C)CC(C)(C)O4)cc2F)cn1` [Example 67, 1-{2-Fluoro-4-[6,8,8-trimethyl-2-(3-oxa-8-azabicyclo[3.2.1]oct-8-yl)-5-oxo-5,6,7,8-tetrahydro-9-oxa-1,3,6-triazabenzocyclohepten-4-yl]phenyl}-3-(6-methylpyridin-3-yl)urea], the pIC50 in assay [1] is 7.82; in assay [3] it was 7.16. In addition, the “PI3Ka IC50” value in assay [2] was >10 µM. For the same compound, the half-inhibitory concentration (IC50) in assay [4] was found to be 20 nM.

Turning to `CN1CC(C)(C)Oc2nc(N3C4CCC3COC4)nc(-c3ccc(NC(=O)Nc4ccncc4)cc3)c2C1=O` [Example 68, 1-Pyridin-4-yl-3-{4-[6,8,8-trimethyl-2-(3-oxa-8-azabicyclo[3.2.1]oct-8-yl)-5-oxo-5,6,7,8-tetrahydro-9-oxa-1,3,6-triazabenzocyclohepten-4-yl]phenyl}urea], the values for the pIC50 in assay [1] and in assay [3] were 7.92 and 7.09, respectively. In addition, the “PI3Ka IC50” value in assay [2] turned out to be 1.36 µM. Also, the IC50 in assay [4] was 16 nM.

Take `CN1CC(C)(C)Oc2nc(N3CC4CCC(C3)O4)nc(-c3ccc(NC(=O)Nc4ccncc4)cc3)c2C1=O` [Example 69, 1-Pyridin-4-yl-3-{4-[6,8,8-trimethyl-2-(8-oxa-3-azabicyclo[3.2.1]oct-3-yl)-5-oxo-5,6,7,8-tetrahydro-9-oxa-1,3,6-triazabenzocyclohepten-4-yl]phenyl}urea]: the figures for the pIC50 in assay [1] and in assay [3] were 8.22 and 7.10, respectively. In assay [2], the “PI3Ka IC50” value is 0.472 µM. Moreover, the IC50 in assay [4] stood at 35 nM.

Take `COc1ccnc(NC(=O)Nc2ccc(-c3nc(N4C5CCC4COC5)nc4c3C(=O)N(C)CC(C)(C)O4)cc2)c1` [Example 70, 1-(4-Methoxypyridin-2-yl)-3-{4-[6,8,8-trimethyl-2-(3-oxa-8-azabicyclo[3.2.1]oct-8-yl)-5-oxo-5,6,7,8-tetrahydro-9-oxa-1,3,6-triazabenzocyclohepten-4-yl]phenyl}urea]: the pIC50 in assay [1] is 7.57; in assay [3], 6.54. In assay [2], the “PI3Ka IC50” value is >10 µM. The half-maximal inhibitory concentration (IC50) in assay [4] came to 40 nM.

`CCN1CC(C)(C)Oc2nc(N3CC4CCC(C3)O4)nc(-c3ccc(NC(=O)Nc4ccncc4)cc3F)c2C1=O` [Example 71, 1-{4-[6-Ethyl-8,8-dimethyl-2-(8-oxa-3-azabicyclo[3.2.1]oct-3-yl)-5-oxo-5,6,7,8-tetrahydro-9-oxa-1,3,6-triazabenzocyclohepten-4-yl]-3-fluorophenyl}-3-pyridin-4-ylurea]: the figures for the pIC50 in assay [1] and in assay [3] were 7.68 and 6.68, respectively. Also, the “PI3Ka IC50” value in assay [2] was >10 µM. Further, the half-inhibitory concentration (IC50) in assay [4] was 59 nM.

For `CCN1CC(C)(C)Oc2nc(N3CC4CCC(C3)O4)nc(-c3ccc(NC(=O)Nc4ccc(N5CCC(O)C5)cn4)cc3)c2C1=O` (stereo not shown) [Example 72, 1-{4-[6-Ethyl-8,8-dimethyl-2-(8-oxa-3-azabicyclo[3.2.1]oct-3-yl)-5-oxo-5,6,7,8-tetrahydro-9-oxa-1,3,6-triazabenzocyclohepten-4-yl]phenyl}-3-[5-(3-hydroxypyrrolidin-1-yl)pyridin-2-yl]urea], the values for the pIC50 in assay [1] and in assay [3] were 7.64 and 6.30, respectively. Besides, in assay [2], the “PI3Ka IC50” value was >10 µM. Besides, the IC50 in assay [4] was 58 nM.

Regarding `C[C@H]1COCCN1c1ccc(NC(=O)Nc2ccc(-c3nc(N4CC5CCC(C4)O5)nc4c3C(=O)N(C)CC(C)(C)O4)cc2F)cn1` [Example 73, 1-{2-Fluoro-4-[6,8,8-trimethyl-2-(8-oxa-3-azabicyclo[3.2.1]oct-3-yl)-5-oxo-5,6,7,8-tetrahydro-9-oxa-1,3,6-triazabenzocyclohepten-4-yl]phenyl}-3-[6-((S)-3-methylmorpholin-4-yl)pyridin-3-yl]urea], the pIC50 in assay [1] was 7.15; in assay [3], 6.92. The “PI3Ka IC50” value in assay [2] is 5.91 µM. Moreover, the IC50 in assay [4] amounted to 48 nM.
